Results taken from US20240043439A1, “COMPOUNDS AS C5AR INHIBITORS” (Kira Pharmaceuticals (Suzhou) Ltd., priority 2020, published 2024).

Each compound was assayed against human C5a receptor (C5aR) (Homo sapiens (Human), UniProt P21730) (assay: Inhibition of C5a-C5aR binding (biotinylated human C5a, U937/C5aR cells, FACS)). Conditions: not given.
Description: U937 cells were originally obtained from the American Type Culture Collection (ATCC) and transfected with human C5a receptor (C5aR). U937/C5aR cells were cultured at 37° C., 5% CO2 in RPMI1640 (Gibco) supplemented with 10% FBS (Gibco) and 350 µg/ml Geneticin (Gibco) and passaged every 3 days to maintain the density range from […] to 2×10^6 cells/ml.
Human C5a biotinylation was performed according to the procedure provided by manufacturer (Thermo Scientific, A39257). 10 mM solution of Sulfo-NHS-LC-Biotin was prepared by adding 180μl ultrapure H2O to the 1 mg vial immediately. 12 μl 10 mM biotin reagent was added to […] human C5a solution, gently pipetted for 3 seconds, and incubated on ice for 2 hours. Amicon ultra-0.5 centrifuge filter device (Millipore, UFC5003BK) was pre-rinsed with Milli-Q H2O, centrifuged at 14000 g for 5 min immediately before use. Up to […] sample (diluted by PBS) was added to the device and capped. The device was spinned at 14000 g for approximately 5 min. 250 μl PBS was added to the filter device, spinned at 14000 g for 5 min, and repeatedly washed 6 times. The filter device was separated from the microcentrifuge tube and placed upside down in a clean microcentrifuge tube, spinned for 2 min at 1000 g to transfer the concentrated sample from the device to the tube.
U937/C5aR cells were collected and washed twice by PBS, cells were suspended in PBS+0.1% BSA buffer at the density of 3×10^6 cells/ml. 100 μl cell suspension was added to a 96 well microplate. 50 μl compound diluted in assay buffer and 50 μl biotinylated ligand human C5a (30 nM) were added to corresponding wells in order and the plate was incubated on ice for 120 min and then centrifuged at 1000 rpm for 3-5 min at 4° C. Supernatant was removed and cells were washed by pre-cold PBS twice. 100 μl FITC conjugated streptavidin was added to cells, incubated on ice for another 30 min, and then centrifuged at 1000 rpm for 3-5 min at 4° C. Supernatant was removed and cells were washed by pre-cold PBS twice. 150 μl PBS was added to suspend the cells and signals were detected by FACS (Beckman, Cytoflex).

Chain of human C5a receptor (C5aR) (P21730 whole entry): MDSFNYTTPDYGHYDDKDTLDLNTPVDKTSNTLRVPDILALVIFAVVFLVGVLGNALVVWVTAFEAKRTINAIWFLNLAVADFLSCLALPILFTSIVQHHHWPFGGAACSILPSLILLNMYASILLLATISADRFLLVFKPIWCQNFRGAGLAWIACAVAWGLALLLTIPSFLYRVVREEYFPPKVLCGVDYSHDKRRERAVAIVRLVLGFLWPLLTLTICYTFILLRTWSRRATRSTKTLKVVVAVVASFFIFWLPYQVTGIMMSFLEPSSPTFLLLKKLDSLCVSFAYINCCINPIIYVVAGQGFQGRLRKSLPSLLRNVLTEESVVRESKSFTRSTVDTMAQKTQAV

Compared with `Cc1cccc(F)c1C(=O)N1[C@@H]2CCC[C@@H]2C[C@H](C(=O)Nc2ccc3[nH]ncc3c2)[C@@H]1c1ccc(NC2CCCC2)cc1` [Compound 84, (2R,3S,4aR,7aR)-2-(4-(cyclopentylamino)phenyl)-1-(2-fluoro-6-methylbenzoyl)-N-(1H-indazol-5-yl)octahydro-1H-cyclopenta[b]pyridine-3-carboxamide], `Cc1cccc(F)c1C(=O)N1[C@@H]2CCC[C@@H]2C[C@H](C(=O)Nc2ccc3c(cnn3C3COC3)c2)[C@@H]1c1ccc(NC2CCCC2)cc1` [Compound 83, (2R,3S,4aR,7aR)-2-(4-(cyclopentylamino)phenyl)-1-(2-fluoro-6-methylbenzoyl)-N-(1-(oxetan-3-yl)-1H-indazol-5-yl)octahydro-1H-cyclopenta[b]pyridine-3-carboxamide] is higher in IC50: < 0.05 µM for the first, 2 to 5 µM for the second.

First: Cc1ccc(NC(=O)C2C[C@@H]3CCC[C@@H]3N(C(=O)c3c(C)cccc3F)C2c2ccc(NC3CCCC3)cc2)cc1C(F)(F)F (relative stereo) [Compound 155, cis-2-(4-(cyclopentylamino)phenyl)-1-(2-fluoro-6-methylbenzoyl)-N-(4-methyl-3-(trifluoromethyl)phenyl)octahydro-1H-cyclopenta[b]pyridine-3-carboxamide]
Second: Cc1ccc(NC(=O)C2CC(O)CN(C(=O)c3c(C)cccc3F)C2c2ccc(NC3CCCC3)cc2)cc1C(F)(F)F (centres unmarked) [Compound 42, 2-(4-(cyclopentylamino)phenyl)-1-(2-fluoro-6-methylbenzoyl)-5-hydroxy-N-(4-methyl-3-(trifluoromethyl)phenyl)piperidine-3-carboxamide]
The IC50 of the first is higher: 0.5 to 2 µM for the first, < 0.05 µM for the second. The second is the more potent here.

`Cc1cccc(F)c1C(=O)N1[C@@H]2CCC[C@@H]2C[C@H](C(=O)Nc2ccc3c(cnn3CCN(C)C)c2)[C@@H]1c1ccc(NC2CCOCC2)cc1` [Compound 103, (2R,3S,4aR,7aR)-N-(1-(2-(dimethylamino)ethyl)-1H-indazol-5-yl)-1-(2-fluoro-6-methylbenzoyl)-2-(4-((tetrahydro-2H-pyran-4-yl)amino)phenyl)octahydro-1H-cyclopenta[b]pyridine-3-carboxamide] and `Cc1cccc(F)c1C(=O)N1[C@@H]2CCC[C@@H]2C[C@H](C(=O)Nc2ccc3c(cnn3CCO)c2)[C@@H]1c1ccc(NC2CCOCC2)cc1` [Compound 102, (2R,3S,4aR,7aR)-1-(2-fluoro-6-methylbenzoyl)-N-(1-(2-hydroxyethyl)-1H-indazol-5-yl)-2-(4-((tetrahydro-2H-pyran-4-yl)amino)phenyl)octahydro-1H-cyclopenta[b]pyridine-3-carboxamide] fall in the same range of IC50: 2 to 5 µM for the first, 2 to 5 µM for the second.

Compared with `Cc1cccc(F)c1C(=O)N1[C@@H]2COC[C@@H]2C[C@H](C(=O)Nc2cnc3cnn(C)c3c2)[C@@H]1c1ccc(NC2CCCC2)cc1` [Compound 123, (2R,3S,4aR,7aS)-2-(4-(cyclopentylamino)phenyl)-1-(2-fluoro-6-methylbenzoyl)-N-(1-methyl-1H-pyrazolo[4,3-b]pyridin-6-yl)octahydrofuro[3,4-b]pyridine-3-carboxamide], `Cc1cccc(F)c1C(=O)N1C2COC[C@@H]2C[C@H](C(=O)Nc2ccc3c(cnn3C)c2)[C@@H]1c1ccc(NC2CCOCC2)cc1` (relative stereo) [Compound 134, cis-1-(2-fluoro-6-methylbenzoyl)-N-(1-methyl-1H-indazol-5-yl)-2-(4-((tetrahydro-2H-pyran-4-yl)amino)phenyl)octahydrofuro[3,4-b]pyridine-3-carboxamide] is higher in IC50: 0.05 to 0.5 µM for the first, 2 to 5 µM for the second.

First: Cc1cccc(F)c1C(=O)N1[C@@H]2CCC[C@@H]2C[C@H](C(=O)Nc2ccc3nn(C)cc3c2)[C@@H]1c1ccc(NC2CCOCC2)cc1 [Compound 97, (2R,3S,4aR,7aR)-1-(2-fluoro-6-methylbenzoyl)-N-(2-methyl-2H-indazol-5-yl)-2-(4-((tetrahydro-2H-pyran-4-yl)amino)phenyl)octahydro-1H-cyclopenta[b]pyridine-3-carboxamide]
Second: Cc1cccc(F)c1C(=O)N1[C@@H]2CCC[C@@H]2C[C@H](C(=O)Nc2ccc3nn(CCO)cc3c2)[C@@H]1c1ccc(NC2CCOCC2)cc1 [Compound 104, (2R,3S,4aR,7aR)-1-(2-fluoro-6-methylbenzoyl)-N-(2-(2-hydroxyethyl)-2H-indazol-5-yl)-2-(4-((tetrahydro-2H-pyran-4-yl)amino)phenyl)octahydro-1H-cyclopenta[b]pyridine-3-carboxamide]
The IC50 of the first is lower: 0.5 to 2 µM for the first, 2 to 5 µM for the second.

First: Cc1ccc(NC(=O)[C@H]2CCCN(C(=O)c3c(C)cccc3F)[C@H]2C2CCC3(CCOC3)CC2)cc1C(F)(F)F (stereo partly drawn) [Compound 170, (2S,3S)-1-(2-fluoro-6-methylbenzoyl)-N-(4-methyl-3-(trifluoromethyl)phenyl)-2-(2-oxaspiro[4.5]decan-8-yl)piperidine-3-carboxamide]
Second: Cc1cccc(F)c1C(=O)N1[C@@H]2CCC[C@@H]2C[C@H](C(=O)Nc2ccc3c(cnn3C3COC3)c2)[C@@H]1c1ccc(NC2CCOCC2)cc1 [Compound 99, (2R,3S,4aR,7aR)-1-(2-fluoro-6-methylbenzoyl)-N-(1-(oxetan-3-yl)-1H-indazol-5-yl)-2-(4-((tetrahydro-2H-pyran-4-yl)amino)phenyl)octahydro-1H-cyclopenta[b]pyridine-3-carboxamide]
The IC50 of the first is lower: 0.5 to 2 µM for the first, 2 to 5 µM for the second.

First: Cc1cccc(F)c1C(=O)N1[C@@H]2CCC[C@@H]2C[C@H](C(=O)Nc2ccc3c(cnn3Cc3ccccn3)c2)[C@@H]1c1ccc(NC2CCOCC2)cc1 [Compound 92, (2R,3S,4aR,7aR)-1-(2-fluoro-6-methylbenzoyl)-N-(1-(pyridin-2-ylmethyl)-1H-indazol-5-yl)-2-(4-((tetrahydro-2H-pyran-4-yl)amino)phenyl)octahydro-1H-cyclopenta[b]pyridine-3-carboxamide]
Second: Cc1cccc(F)c1C(=O)N1[C@@H]2CCC[C@@H]2C[C@H](C(=O)Nc2ccc3c(cnn3CCF)c2)[C@@H]1c1ccc(NC2CCOCC2)cc1 [Compound 109, (2R,3S,4aR,7aR)-1-(2-fluoro-6-methylbenzoyl)-N-(1-(2-fluoroethyl)-1H-indazol-5-yl)-2-(4-((tetrahydro-2H-pyran-4-yl)amino)phenyl)octahydro-1H-cyclopenta[b]pyridine-3-carboxamide]
The IC50 of the first is higher: 2 to 5 µM for the first, 0.5 to 2 µM for the second.

In the case of `Cc1cccc(F)c1C(=O)N1[C@@H]2CCC[C@@H]2C[C@H](C(=O)Nc2ccc3nn(CCN(C)C)cc3c2)[C@@H]1c1ccc(NC2CCOCC2)cc1` [Compound 105, (2R,3S,4aR,7aR)-N-(2-(2-(dimethylamino)ethyl)-2H-indazol-5-yl)-1-(2-fluoro-6-methylbenzoyl)-2-(4-((tetrahydro-2H-pyran-4-yl)amino)phenyl)octahydro-1H-cyclopenta[b]pyridine-3-carboxamide], the IC50 is reported as 2 to 5 µM.

The compounds below were run against C5aR (Homo sapiens (Human), UniProt P21730) (assay: Calcium mobilization (U937/C5aR or HEK293/C5aR cells, FLIPR)). Conditions: agonist human C5a at EC80, FLIPR.
Chain of C5aR (P21730 whole entry): as above
Type: cell-based
Description: U937/C5aR cells or HEK293/C5aR cells were washed by PBS and suspended in growth media at the density of 1×10^6 cells/ml. […] to the 384-well plate and culture for overnight. Transfer 250 nl compound solution to the cell plate using Echo, incubate for 60 min. Cells were added with Fluo-4 Direct™ dye and incubate for 50 min at 37° C. 5% CO2 and 10 m at room temperature. Place the cell plate into […] (Molecular Devices). Transfer 10 μl of 5-fold EC80 concentrations of agonist human C5a to the cell plates.

“(cis-3-(6-chloro-1,2,3,4-tetrahydroisoquinoline-2-carbonyl)-2-(4-(cyclopentylamino)phenyl)octahydro-1H-cyclopenta[b]pyridin-1-yl)(2-fluoro-6-methylphenyl)methanone [Compound 72]” and `Cc1ccc(NC(=O)[C@H]2CCCN(Cc3c(C)cccc3F)[C@H]2c2ccc(NC3CCCC3)cc2)cc1C(F)(F)F` [Compound 159, (2R,3S)-2-(4-(cyclopentylamino)phenyl)-1-(2-fluoro-6-methylbenzyl)-N-(4-methyl-3-(trifluoromethyl)phenyl)piperidine-3-carboxamide] fall in the same range of IC50: 2 to 10 µM for the first, 2 to 10 µM for the second.

`Cc1ccc(NC(=O)[C@H]2CCCN[C@H]2c2ccc(N(c3nccc4ccccc34)C3CCCC3)cc2)cc1C(F)(F)F` [Compound 175, (2R,3S)-2-(4-(cyclopentyl(isoquinolin-1-yl)amino)phenyl)-N-(4-methyl-3-(trifluoromethyl)phenyl)piperidine-3-carboxamide] and `Cc1ccc(NC(=O)[C@H]2CCCN(c3ncnc4cnccc34)[C@H]2c2ccc(N(C(=O)OCc3ccccc3)C3CCCC3)cc2)cc1C(F)(F)F` [Compound 167, benzyl cyclopentyl(4-((2R,3S)-3-((4-methyl-3-(trifluoromethyl)phenyl)carbamoyl)-1-(pyrido[3,4-d]pyrimidin-4-yl)piperidin-2-yl)phenyl)carbamate] fall in the same range of IC50: 2 to 10 µM for the first, 2 to 10 µM for the second.

`Cc1ccc(NC(=O)[C@H]2CCCN[C@H]2c2ccc(N(c3ncnc4cnccc34)C3CCCC3)cc2)cc1C(F)(F)F` [Compound 178, (2R,3S)-2-(4-(cyclopentyl(pyrido[3,4-d]pyrimidin-4-yl)amino)phenyl)-N-(4-methyl-3-(trifluoromethyl)phenyl)piperidine-3-carboxamide] gave an IC50 of 2 to 10 µM.
